Assay results reported in US20180311342A1, “IMMUNOSTIMULATING AGENT” (AJINOMOTO CO., INC., priority 2017, published 2018).

Experiments:
Assay type in all cases: in vivo, BALB/c mice
[1] = test system: anti-OVA-specific IgG1 subclass antibody; experiment: Adjuvant activity test: anti-OVA-specific IgG1 subclass antibody in serum of OVA-immunized mice (ELISA); settings: after secondary immunization, serum 2 weeks later; OVA 5 μg + compound 0.256 μmol in 5% αCD-added saline (Addavax mixed with saline at 1:1), dorsal-subcutaneous; compared to OVA single administration group
Method: 8-Week-old female BALB/c mice were divided into groups (N=6), and each group was primarily immunized by dorsal-subcutaneous administration of (1) ovalbumin (OVA) (5 μg) dissolved in saline as an antigen (OVA single administration group), (2) OVA 5 μg and Addavax™ (mixed with saline at 1:1) dissolved in saline (Addavax™ administration group) as positive control adjuvant, (3) OVA 5 μg and SZ137 0.256 μmol dissolved or dispersed in 5% α-cyclodextrin (hereinafter to be simply referred to as αCD)-added saline (SZ137 administration group), (4) OVA (5 μg) and SZ138 (0.256 μmol) dissolved or dispersed in 5% αCD-added saline (SZ138 administration group), (5) OVA (5 μg) and SZ142 (0.256 μmol) dissolved or dispersed in 5% αCD-added saline (SZ142 administration group), (6) OVA (5 μg) and SZ144 (0.256 μmol) dissolved or dispersed in 5% αCD-added saline (SZ144 administration group), (7) OVA (5 μg) and SZ145 (0.256 μmol) dissolved or dispersed in 5% αCD-added saline (SZ145 administration group), (8) OVA (5 μg) and SZ146 (0.256 μmol) dissolved or dispersed in 5% αCD-added saline (SZ146 administration group), (9) OVA (5 μg) and SZ147 (0.256 μmol) dissolved or dispersed in 5% αCD-added saline (SZ147 administration group), (10) OVA (5 μg) and SZ148 (0.256 μmol) dissolved or dispersed in 5% αCD-added saline (SZ148 administration group), each per mouse. Two week later, the secondary immunization was carried out by dorsal-subcutaneous administration of solutions or dispersions similar to those of the above-mentioned (1)-(10) again. Two weeks from the secondary immunization, the whole blood was extracted under anesthesia, and the obtained serum sample was measured for anti-OVA-specific IgG1 subclass antibody, anti-OVA-specific IgG2a subclass antibody, and anti-OVA-specific IgE antibody.
The measurement method of the anti-OVA-specific IgG1 subclass antibody and anti-OVA-specific IgG2a subclass antibody in Experimental Example 1 and the following Experimental Examples 2-10 is as follows.
To a 96 well plate was added 5 μg/ml OVA at 100 µl/well, and the mixture was incubated at 4° C. overnight. After incubation, the mixture was washed three times with 200 μl of PBS-T (PBS (phosphate buffered saline)+0.05% (v/v) Tween 20) per well, and blocked with 100 μl of 5% FCS (fetal calf serum)/PBS solution per well at room temperature for 1-2 hr. Thereafter, the mixture was washed three times with PBS-T (200 μl/well), a diluted serum sample (100 l/well) or the same amount of 5% FCS/PBS solution as a control was added, and the mixture was incubated at 37° C. for 1 hr. To calculate concentration of the antibody, the standard of an anti-OVA-specific IgG1 subclass antibody diluted with 2% FCS/PBS solution was added at 100 ng/ml, 50 ng/ml, 25 ng/ml, 12.5 ng/ml, 6.25 ng/ml, 3.125 ng/ml, 1.56 ng/ml, 0.781 ng/ml, 0.391 ng/ml, 0.195 ng/ml, 0.098 ng/ml, 0 ng/ml, per 1 well. When an anti-OVA-specific IgG2a subclass antibody was measured, the standard of an anti-OVA-specific IgG2a subclass antibody was added at 50 ng/ml, 25 ng/ml, 12.5 ng/ml, 6.25 ng/ml, 3.125 ng/ml, 1.56 ng/ml, 0.781 ng/ml, 0.391 ng/ml, 0.195 ng/ml, 0.098 ng/ml, 0.049 ng/ml, 0 ng/ml, per 1 well. Thereafter, similar to the samples, the mixture was washed five times with PBS-T (200 μl/well), a diluted biotinylated anti-mouse IgG1 antibody and IgG2a antibody were added (100 μl/well), and the mixture was incubated at 37° C. for 45 min. Thereafter, the mixture was washed five times with PBS-T (200 μl/well), a diluted anti-biotin-HRP antibody was added (100 μl/well), and the mixture was incubated at 37° C. for another 30 min. Thereafter, the mixture was washed five times with PBS-T (200 μl/well), TMB substrate solution was added (100 μl/well), and the mixture was incubated at room temperature for 10-15 min. Thereafter, a reaction quenching liquid (2N sulfuric acid solution) was added (50 l/well) to discontinue a color developing reaction, and the absorbance (OD Value=450 nm) was measured by a microplate reader. […]

[2] = test system: anti-OVA-specific IgG1 subclass antibody; experiment: as above; settings: after primary immunization, serum 2 weeks later; OVA 5 μg + compound 0.256 μmol in 5% αCD-added saline (Addavax mixed with saline at 1:1), dorsal-subcutaneous; compared to OVA single administration group
[3] = test system: anti-OVA-specific IgG2a subclass antibody; experiment: Adjuvant activity test: anti-OVA-specific IgG2a subclass antibody in serum of OVA-immunized mice (ELISA); settings: after primary immunization, serum 2 weeks later; OVA 5 μg + compound 0.256 μmol in 5% αCD-added saline (Addavax mixed with saline at 1:1), dorsal-subcutaneous; compared to OVA single administration group

Structure (SMILES)	anti-OVA-specific IgG1 subclass antibody production [1]	anti-OVA-specific IgG1 subclass antibody production [2]	anti-OVA-specific IgG2a subclass antibody production [3]
CCCCCCCCCCCCNC(=O)N[C@@H](CCCNC(=N)N)C(=O)NCCCCCCCCCCCC.Cl [SZ212, (2S)—N-dodecyl-2-(dodecylcarbamoylamino)-5-guanidino-pentanamide hydrochloride]	significant enhancement	significant enhancement	significant enhancement
CCCCCCCCCCCCCCCCNC(=O)N[C@@H](CCCCN)C(=O)NCCCCCCCC.Cl [SZ213, (2S)-6-amino-2-(hexadecylcarbamoylamino)-N-octyl-hexanamide hydrochloride]	significant enhancement	a tendency toward increase	significant enhancement
CCCCCCCCCCCCCCCCOC(=O)N[C@@H](CCCCN)C(=O)NCCCCCCCC.Cl [SZ188, hexadecyl N-[(1S)-5-amino-1-(octylcarbamoyl)pentyl]carbamate hydrochloride]	showed a tendency to increase	a tendency toward increase was found	a tendency toward increase was found
CCCCCCCCCCCCCCCCCCCCCC(=O)NCCc1ccncc1.Cl [SZ209, N-[2-(4-pyridyl)ethyl]docosanamide hydrochloride]	tended to increase	tended to increase	tended to increase
CCCCCCCCCCCCCCCC(=O)N[C@@H](CC(C)C)C(=O)NCCCCCCCC [SZ199, N-[(1S)-3-methyl-1-(octylcarbamoyl)butyl]hexadecanamide]	significant enhancement	significant enhancement	significant enhancement
CCCCCCCCCCCCCCCCCCCCCC(=O)NC(C)(C)C(=O)NCCCCCCCCCCCC [SZ146, N-[2-(dodecylamino)-1,1-dimethyl-2-oxo-ethyl]docosanamide]	showed a tendency to increase		
CCCCCCCCCCCCCCCCCC(=O)N[C@@H](CCCCNC(=N)N)C(=O)NCCCCCC.Cl [SZ206, N-[(1S)-1-(hexylcarbamoyl)-5-guanidino-pentyl]octadecanamide hydrochloride]		significant enhancement	significant enhancement
CCCCCCCCCCCCCCCCNC(=O)N[C@H](CCCNC(=N)N)C(=O)NCCCCCCCCCCCC.Cl [SZ193, (2R)—N-dodecyl-5-guanidino-2-(hexadecylcarbamoylamino)pentanamide hydrochloride]	showed a tendency to increase	significant enhancement	significant enhancement
CCCCCCCCCCCCCCCCCC(=O)NCC(C)(C)C(=O)NCCCCCCCCCCCC [SZ204, N-[3-(dodecylamino)-2,2-dimethyl-3-oxo-propyl]octadecanamide]	significant enhancement	tended to increase	tended to increase
CCCCCCCCCCCCCCCC(=O)N[C@H](CCCCN)C(=O)NCCCCCCCCCCCC.Cl [SZ194, N-[(1R)-5-amino-1-(dodecylcarbamoyl)pentyl]hexadecanamide hydrochloride]	showed a tendency to increase	tended to increase	Significant enhancement
CCCCCCCCCCCCCCCCCC(=O)N[C@@H](CCCCN)C(=O)NCCCCCCCC.Cl [SZ184, N-[(1S)-5-amino-1-(octylcarbamoyl)pentyl]octadecanamide hydrochloride]	showed a tendency to increase	a tendency toward increase was found	a tendency toward increase was found
CCCCCCCCCCCCCCCCCCCCCC(=O)N[C@@H](CCCCNC(=N)N)C(=O)NCCCCCC.Cl [SZ170, N-[(1S)-5-guanidino-1-(hexylcarbamoyl)pentyl]docosanamide hydrochloride]	tended to increase		
CCCCCCCCCCCCCCCCCCCCCC(=O)N[C@@H](C)C(=O)NCCCCCCCCCCCC [SZ145, N-[(1S)-2-(dodecylamino)-1-methyl-2-oxo-ethyl]docosanamide]	showed a tendency to increase		
CCCCCCCCCCCCCCCCCCCCCC(=O)N[C@@H](CCCCN)C(=O)NCCCCCCCCCCCC.Cl [SZ160, N-[(1S)-5-amino-1-(dodecylcarbamoyl)pentyl]docosanamide hydrochloride]	showed a tendency to increase		
CCCCCCCCCCCCCCCCCCCCCC(=O)N1CCC(C(=O)NCCCCCCCCCCCC)CC1 [SZ156, 1-docosanoyl-N-dodecyl-piperidine-4-carboxamide]	showed a tendency to increase		
CCCCCCCCCCCCCCCCOC(=O)N[C@@H](CCCNC(=N)N)C(=O)NCCCCCCCCCCCC.Cl [SZ150, Hexadecyl N-[(1S)-1-(dodecylcarbamoyl)-4-guanidino-butyl]carbamate hydrochloride]	significantly increased		
CCCCCCCCCCCCCCCCCCCCCC(=O)N[C@@H](CCCNC(=N)N)C(=O)N(CCCCCCC)CCCCCCC.Cl [SZ159, N-[(1S)-1-(diheptylcarbamoyl)-4-guanidino-butyl]docosanamide hydrochloride]	showed a tendency to increase		
CCCCCCCCCCCCCCCCCCCCCC(=O)N[C@@H](CCCC)C(=O)NCCCCCCCCCCCC [SZ155, N-[(1S)-1-(dodecylcarbamoyl)pentyl]docosanamide]	showed a tendency to increase		
CCCCCCCCCCCCCCCCOC(=O)N[C@@H](CCCNC(=N)N)C(=O)NCCCCCC.Cl [SZ169, Hexadecyl N-[(1S)-4-guanidino-1-(hexylcarbamoyl)butyl]carbamate hydrochloride]	tended to increase		
CCCCCCCCCCCCCCCCCCCCCC(=O)NCCC(=O)NCCCCCCCCCCCC [SZ147, N-[3-(dodecylamino)-3-oxo-propyl]docosanamide]	showed a tendency to increase		
